{"source": "patent US20250099434A1", "about": "“METHODS OF TREATING AMYLOID RELATED BRAIN DISORDERS USING NOVEL COMPOUNDS AND ANTIBODIES” (T3D Therapeutics, Inc., priority 2022, published 2025)", "key": {"[1]": {"tested_on": "patients with mild-to-moderate Alzheimer's disease (AD)", "test": "BOLD fMRI (task-free fMRI) clinical study, baseline vs end of treatment", "assay_type": "in vivo, human", "protocol": "The majority were non-Hispanic and of white origin.\nT3D Therapeutics completed an exploratory analysis of the Phase 2A non-placebo-controlled feasibility study to assess the therapeutic effects of T3D959 in patients with mild-to-moderate Alzheimer's disease (AD) via task-free functional magnetic resonance imaging (tf-fMRI). A total of 34 subjects participated and were split into 4 groups that took different amounts of T3D959 over the course of the study: 3 mg, 10 mg, 30 mg, and 90 mg. A baseline tf-fMRI scan was obtained prior to treatment and another two weeks after. Sixteen tf-fMRI metrics were calculated at each time point and summarized for each patient group to assess the therapeutic effect of T3D959.\nThe T3D clinical trial investigated the following metrics: • 1. Goodness of Fit of the subject's default mode network regions compared to those of an elderly control group. • 2. The correlation strength between the hippocampus and precuneus. • 3. The global efficiency calculated from 11 pre-defined default mode network regions. • 4. The global efficiency calculated from 90 pre-defined cerebral regions based on the automated anatomical labeling atlas. • 5. The amplitude of low frequency fluctuations (ALFF) and […] of low frequency fluctuations (fALFF) from the right posterior cingulate cortex (PCC) and precuneus (PreC) in the low frequency oscillations (LFO) range (0.01-0.08 Hz). • 6. The ALFF and fALFF from the left PCC and PreC in the LFO range. • 7. The regional homogeneity (ReHo) in the right PCC and PreC. • 8. The ReHo in the left PCC and PreC. • 9. […] The ALFF and fALFF from the left IPL in the LFO range. • 11. The ReHo in the right IPL • 12. The ReHo in the left IPL."}, "Caco-2": {"tested_on": "Caco-2", "test": "Caco-2 permeability with and without P-gp inhibitor verapamil", "settings": "absence of a P-gp inhibitor"}}}
{"smiles": "CCc1oc(-c2ccc(OC)cc2)nc1CCOc1ccc2c(c1)CC[C@H]2CC(=O)[O-].[Na+]", "note": "[Example 11, Sodium (S)-2-(5-(2-(5-ethyl-2-(4-methoxyphenyl)oxazol-4-yl)ethoxy)-2,3-dihydro-1H-inden-1-yl)acetate]", "values": [{"measurement": "ALFF-IIPL, Change from Baseline EOT, Mean", "setting": "[1]; 3 mg", "result": "−0.0635"}, {"measurement": "ALFF-IIPL, Change from Baseline EOT, Median", "setting": "[1]; 3 mg", "result": "−0.0393"}, {"measurement": "ALFF-rIPL, Change from Baseline EOT, Mean", "setting": "[1]; 3 mg", "result": "−0.0493"}, {"measurement": "ALFF-rIPL, Change from Baseline EOT, Median", "setting": "[1]; 3 mg", "result": "−0.0587"}, {"measurement": "ReHo-IIPL, Change from Baseline EOT, Mean", "setting": "[1]; 3 mg", "result": "−0.0694"}, {"measurement": "ReHo-IIPL, Change from Baseline EOT, Median", "setting": "[1]; 3 mg", "result": "−0.0822"}, {"measurement": "ReHo-IPPC-PreC, Change from Baseline EOT, Mean", "setting": "[1]; 3 mg", "result": "−0.0665"}, {"measurement": "ReHo-IPPC-PreC, Change from Baseline EOT, Median", "setting": "[1]; 3 mg", "result": "−0.0428"}, {"measurement": "ReHo-rIPL, Change from Baseline EOT, Mean", "setting": "[1]; 3 mg", "result": "−0.0694"}, {"measurement": "ReHo-rIPL, Change from Baseline EOT, Median", "setting": "[1]; 3 mg", "result": "−0.0822"}, {"measurement": "ReHo-rPPC-Prec, Change from Baseline EOT, Mean", "setting": "[1]; 3 mg", "result": "−0.0390"}, {"measurement": "ReHo-rPPC-Prec, Change from Baseline EOT, Median", "setting": "[1]; 3 mg", "result": "−0.0081"}, {"measurement": "fALFF-IIPL, Change from Baseline EOT, Mean", "setting": "[1]; 3 mg", "result": "−0.0296"}, {"measurement": "fALFF-IIPL, Change from Baseline EOT, Median", "setting": "[1]; 3 mg", "result": "−0.0311"}, {"measurement": "fALFF-IPPC-PreC, Change from Baseline EOT, Mean", "setting": "[1]; 3 mg", "result": 0.0121}, {"measurement": "fALFF-IPPC-PreC, Change from Baseline EOT, Median", "setting": "[1]; 3 mg", "result": 0.0019}, {"measurement": "fALFF-rIPL, Change from Baseline EOT, Mean", "setting": "[1]; 3 mg", "result": "−0.0342"}, {"measurement": "fALFF-rIPL, Change from Baseline EOT, Median", "setting": "[1]; 3 mg", "result": "−0.0327"}, {"measurement": "fALFF-rPPC-PreC, Change from Baseline EOT, Mean", "setting": "[1]; 3 mg", "result": "−0.0080"}, {"measurement": "fALFF-rPPC-PreC, Change from Baseline EOT, Median", "setting": "[1]; 3 mg", "result": "−0.0229"}, {"measurement": "ALFF-IIPL, Change from Baseline EOT, Mean", "setting": "[1]; 10 mg", "result": 0.0104}, {"measurement": "ALFF-IIPL, Change from Baseline EOT, Median", "setting": "[1]; 10 mg", "result": 0.0273}, {"measurement": "ALFF-rIPL, Change from Baseline EOT, Mean", "setting": "[1]; 10 mg", "result": "−0.0276"}, {"measurement": "ALFF-rIPL, Change from Baseline EOT, Median", "setting": "[1]; 10 mg", "result": "−0.0278"}, {"measurement": "ReHo-IIPL, Change from Baseline EOT, Mean", "setting": "[1]; 10 mg", "result": 0.0147}, {"measurement": "ReHo-IIPL, Change from Baseline EOT, Median", "setting": "[1]; 10 mg", "result": "−0.0201"}, {"measurement": "ReHo-IPPC-PreC, Change from Baseline EOT, Mean", "setting": "[1]; 10 mg", "result": 0.0237}, {"measurement": "ReHo-IPPC-PreC, Change from Baseline EOT, Median", "setting": "[1]; 10 mg", "result": 0.0523}, {"measurement": "ReHo-rIPL, Change from Baseline EOT, Mean", "setting": "[1]; 10 mg", "result": 0.0147}, {"measurement": "ReHo-rIPL, Change from Baseline EOT, Median", "setting": "[1]; 10 mg", "result": "−0.0201"}, {"measurement": "ReHo-rPPC-Prec, Change from Baseline EOT, Mean", "setting": "[1]; 10 mg", "result": "−0.0663"}, {"measurement": "ReHo-rPPC-Prec, Change from Baseline EOT, Median", "setting": "[1]; 10 mg", "result": 0.0153}, {"measurement": "fALFF-IIPL, Change from Baseline EOT, Mean", "setting": "[1]; 10 mg", "result": 0.0164}, {"measurement": "fALFF-IIPL, Change from Baseline EOT, Median", "setting": "[1]; 10 mg", "result": 0.0097}, {"measurement": "fALFF-IPPC-PreC, Change from Baseline EOT, Mean", "setting": "[1]; 10 mg", "result": 0.0068}, {"measurement": "fALFF-IPPC-PreC, Change from Baseline EOT, Median", "setting": "[1]; 10 mg", "result": "−0.0068"}, {"measurement": "fALFF-rIPL, Change from Baseline EOT, Mean", "setting": "[1]; 10 mg", "result": 0.0061}, {"measurement": "fALFF-rIPL, Change from Baseline EOT, Median", "setting": "[1]; 10 mg", "result": 0.0096}, {"measurement": "fALFF-rPPC-PreC, Change from Baseline EOT, Mean", "setting": "[1]; 10 mg", "result": 0.0084}, {"measurement": "fALFF-rPPC-PreC, Change from Baseline EOT, Median", "setting": "[1]; 10 mg", "result": "−0.0028"}, {"measurement": "ALFF-IIPL, Change from Baseline EOT, Mean", "setting": "[1]; 30 mg", "result": "−0.0102"}, {"measurement": "ALFF-IIPL, Change from Baseline EOT, Median", "setting": "[1]; 30 mg", "result": "−0.0031"}, {"measurement": "ALFF-rIPL, Change from Baseline EOT, Mean", "setting": "[1]; 30 mg", "result": 0.0346}, {"measurement": "ALFF-rIPL, Change from Baseline EOT, Median", "setting": "[1]; 30 mg", "result": 0.0332}, {"measurement": "ReHo-IIPL, Change from Baseline EOT, Mean", "setting": "[1]; 30 mg", "result": "−0.0249"}, {"measurement": "ReHo-IIPL, Change from Baseline EOT, Median", "setting": "[1]; 30 mg", "result": "−0.0135"}, {"measurement": "ReHo-IPPC-PreC, Change from Baseline EOT, Mean", "setting": "[1]; 30 mg", "result": "−0.0369"}, {"measurement": "ReHo-IPPC-PreC, Change from Baseline EOT, Median", "setting": "[1]; 30 mg", "result": "−0.0398"}, {"measurement": "ReHo-rIPL, Change from Baseline EOT, Mean", "setting": "[1]; 30 mg", "result": "−0.0249"}, {"measurement": "ReHo-rIPL, Change from Baseline EOT, Median", "setting": "[1]; 30 mg", "result": "−0.0135"}, {"measurement": "ReHo-rPPC-Prec, Change from Baseline EOT, Mean", "setting": "[1]; 30 mg", "result": "−0.0895"}, {"measurement": "ReHo-rPPC-Prec, Change from Baseline EOT, Median", "setting": "[1]; 30 mg", "result": "−0.1176"}, {"measurement": "fALFF-IIPL, Change from Baseline EOT, Mean", "setting": "[1]; 30 mg", "result": "−0.0107"}, {"measurement": "fALFF-IIPL, Change from Baseline EOT, Median", "setting": "[1]; 30 mg", "result": "−0.0034"}, {"measurement": "fALFF-IPPC-PreC, Change from Baseline EOT, Mean", "setting": "[1]; 30 mg", "result": "−0.0132"}, {"measurement": "fALFF-IPPC-PreC, Change from Baseline EOT, Median", "setting": "[1]; 30 mg", "result": "−0.0141"}, {"measurement": "fALFF-rIPL, Change from Baseline EOT, Mean", "setting": "[1]; 30 mg", "result": 0.0023}, {"measurement": "fALFF-rIPL, Change from Baseline EOT, Median", "setting": "[1]; 30 mg", "result": 0.0001}, {"measurement": "fALFF-rPPC-PreC, Change from Baseline EOT, Mean", "setting": "[1]; 30 mg", "result": "−0.0007"}, {"measurement": "fALFF-rPPC-PreC, Change from Baseline EOT, Median", "setting": "[1]; 30 mg", "result": "−0.0133"}, {"measurement": "ALFF-IIPL, Change from Baseline EOT, Mean", "setting": "[1]; 90 mg", "result": "−0.0401"}, {"measurement": "ALFF-IIPL, Change from Baseline EOT, Median", "setting": "[1]; 90 mg", "result": "−0.0560"}, {"measurement": "ALFF-rIPL, Change from Baseline EOT, Mean", "setting": "[1]; 90 mg", "result": "−0.1089"}, {"measurement": "ALFF-rIPL, Change from Baseline EOT, Median", "setting": "[1]; 90 mg", "result": "−0.0671"}, {"measurement": "ReHo-IIPL, Change from Baseline EOT, Mean", "setting": "[1]; 90 mg", "result": "−0.0062"}, {"measurement": "ReHo-IIPL, Change from Baseline EOT, Median", "setting": "[1]; 90 mg", "result": "−0.0121"}, {"measurement": "ReHo-IPPC-PreC, Change from Baseline EOT, Mean", "setting": "[1]; 90 mg", "result": 0.0194}, {"measurement": "ReHo-IPPC-PreC, Change from Baseline EOT, Median", "setting": "[1]; 90 mg", "result": 0.0566}, {"measurement": "ReHo-rIPL, Change from Baseline EOT, Mean", "setting": "[1]; 90 mg", "result": "−0.0062"}, {"measurement": "ReHo-rIPL, Change from Baseline EOT, Median", "setting": "[1]; 90 mg", "result": "−0.0121"}, {"measurement": "ReHo-rPPC-Prec, Change from Baseline EOT, Mean", "setting": "[1]; 90 mg", "result": "−0.0041"}, {"measurement": "ReHo-rPPC-Prec, Change from Baseline EOT, Median", "setting": "[1]; 90 mg", "result": 0.0177}, {"measurement": "fALFF-IIPL, Change from Baseline EOT, Mean", "setting": "[1]; 90 mg", "result": "−0.0350"}, {"measurement": "fALFF-IIPL, Change from Baseline EOT, Median", "setting": "[1]; 90 mg", "result": "−0.0211"}, {"measurement": "fALFF-IPPC-PreC, Change from Baseline EOT, Mean", "setting": "[1]; 90 mg", "result": "−0.0167"}, {"measurement": "fALFF-IPPC-PreC, Change from Baseline EOT, Median", "setting": "[1]; 90 mg", "result": "−0.0166"}, {"measurement": "fALFF-rIPL, Change from Baseline EOT, Mean", "setting": "[1]; 90 mg", "result": "−0.0395"}, {"measurement": "fALFF-rIPL, Change from Baseline EOT, Median", "setting": "[1]; 90 mg", "result": "−0.0313"}, {"measurement": "fALFF-rPPC-PreC, Change from Baseline EOT, Mean", "setting": "[1]; 90 mg", "result": "−0.0118"}, {"measurement": "fALFF-rPPC-PreC, Change from Baseline EOT, Median", "setting": "[1]; 90 mg", "result": 0.0039}, {"measurement": "Papparent", "setting": "Caco-2", "result": 114.4, "unit": "×10⁻⁶ cm/s"}]}
